From ChEMBL document CHEMBL3044736, “Synthesis, characterization, solvatochromic properties, and antimicrobial evaluation of 5-acetyl-2-thioxo-dihydro-pyrimidine-4,6-dione-based chalcones” (2013)
In brackets after ≈: the same amount, converted by molar mass.

Assays:
Format in all cases: functional
Staphylococcus aureus [1] = test: Antimicrobial activity against Staphylococcus aureus MTCC 96 assessed as diameter of growth inhibition zone at 25 ug/ml after 18-24 hr by agar cup diffusion method; settings: read-out: DIZ
Staphylococcus aureus [2] = test: Antimicrobial activity against Staphylococcus aureus MTCC 96 assessed as diameter of growth inhibition zone at 100 ug/ml after 18-24 hr by agar cup diffusion method; settings: read-out: DIZ
Penicillium [3] = test: Antimicrobial activity against Penicillium wild strain assessed as diameter of growth inhibition zone at 250 ug/ml after 48-96 hr by agar cup diffusion method; settings: read-out: DIZ
Aspergillus clavatus [4] = test: Antimicrobial activity against Aspergillus clavatus MTCC 1323 assessed as diameter of growth inhibition zone at 100 ug/ml after 48-96 hr by agar cup diffusion method; settings: read-out: DIZ
Candida albicans [5] = test: Antimicrobial activity against Candida albicans MTCC 227 assessed as diameter of growth inhibition zone at 250 ug/ml after 48-96 hr by agar cup diffusion method; settings: read-out: DIZ
Escherichia coli [6] = test: Antimicrobial activity against Escherichia coli MTCC 443 assessed as diameter of growth inhibition zone at 250 ug/ml after 18-24 hr by agar cup diffusion method; settings: read-out: DIZ
Trichophyton rubrum [7] = test: Antimicrobial activity against Trichophyton rubrum MTCC 296 assessed as diameter of growth inhibition zone at 25 ug/ml after 48-96 hr by agar cup diffusion method; settings: read-out: DIZ
Klebsiella pneumoniae [8] = test: Antimicrobial activity against Klebsiella pneumoniae MTCC 109 assessed as diameter of growth inhibition zone at 50 ug/ml after 18-24 hr by agar cup diffusion method; settings: read-out: DIZ
Pseudomonas aeruginosa [9] = test: Antimicrobial activity against Pseudomonas aeruginosa MTCC 1688 by agar cup diffusion method
Staphylococcus aureus [10] = test: Antimicrobial activity against Staphylococcus aureus MTCC 96 by agar cup diffusion method
Escherichia coli [11] = test: Antimicrobial activity against Escherichia coli MTCC 443 assessed as diameter of growth inhibition zone at 25 ug/ml after 18-24 hr by agar cup diffusion method; settings: read-out: DIZ
Pseudomonas aeruginosa [12] = test: Antimicrobial activity against Pseudomonas aeruginosa MTCC 1688 assessed as diameter of growth inhibition zone at 250 ug/ml after 18-24 hr by agar cup diffusion method; settings: read-out: DIZ
Staphylococcus aureus [13] = test: Antimicrobial activity against Staphylococcus aureus MTCC 96 assessed as diameter of growth inhibition zone at 50 ug/ml after 18-24 hr by agar cup diffusion method; settings: read-out: DIZ
Streptococcus pyogenes [14] = test: Antimicrobial activity against Streptococcus pyogenes MTCC 442 assessed as diameter of growth inhibition zone at 50 ug/ml after 18-24 hr by agar cup diffusion method; settings: read-out: DIZ
Aspergillus clavatus [15] = test: Antimicrobial activity against Aspergillus clavatus MTCC 1323 by agar cup diffusion method
Candida albicans [16] = test: Antimicrobial activity against Candida albicans MTCC 227 assessed as diameter of growth inhibition zone at 100 ug/ml after 48-96 hr by agar cup diffusion method; settings: read-out: DIZ
Candida albicans [17] = test: Antimicrobial activity against Candida albicans MTCC 227 assessed as diameter of growth inhibition zone at 25 ug/ml after 48-96 hr by agar cup diffusion method; settings: read-out: DIZ
Pseudomonas aeruginosa [18] = test: Antimicrobial activity against Pseudomonas aeruginosa MTCC 1688 assessed as diameter of growth inhibition zone at 25 ug/ml after 18-24 hr by agar cup diffusion method; settings: read-out: DIZ
Candida albicans [19] = test: Antimicrobial activity against Candida albicans MTCC 227 by agar cup diffusion method
Trichophyton rubrum [20] = test: Antimicrobial activity against Trichophyton rubrum MTCC 296 by agar cup diffusion method
Streptococcus pyogenes [21] = test: Antimicrobial activity against Streptococcus pyogenes MTCC 442 assessed as diameter of growth inhibition zone at 100 ug/ml after 18-24 hr by agar cup diffusion method; settings: read-out: DIZ
Escherichia coli [22] = test: Antimicrobial activity against Escherichia coli MTCC 443 assessed as diameter of growth inhibition zone at 100 ug/ml after 18-24 hr by agar cup diffusion method; settings: read-out: DIZ
Streptococcus pyogenes [23] = test: Antimicrobial activity against Streptococcus pyogenes MTCC 442 by agar cup diffusion method
Trichophyton rubrum [24] = test: Antimicrobial activity against Trichophyton rubrum MTCC 296 assessed as diameter of growth inhibition zone at 100 ug/ml after 48-96 hr by agar cup diffusion method; settings: read-out: DIZ
Trichophyton rubrum [25] = test: Antimicrobial activity against Trichophyton rubrum MTCC 296 assessed as diameter of growth inhibition zone at 50 ug/ml after 48-96 hr by agar cup diffusion method; settings: read-out: DIZ
Aspergillus clavatus [26] = test: Antimicrobial activity against Aspergillus clavatus MTCC 1323 assessed as diameter of growth inhibition zone at 250 ug/ml after 48-96 hr by agar cup diffusion method; settings: read-out: DIZ
Aspergillus clavatus [27] = test: Antimicrobial activity against Aspergillus clavatus MTCC 1323 assessed as diameter of growth inhibition zone at 25 ug/ml after 48-96 hr by agar cup diffusion method; settings: read-out: DIZ
Trichophyton rubrum [28] = test: Antimicrobial activity against Trichophyton rubrum MTCC 296 assessed as diameter of growth inhibition zone at 250 ug/ml after 48-96 hr by agar cup diffusion method; settings: read-out: DIZ
Streptococcus pyogenes [29] = test: Antimicrobial activity against Streptococcus pyogenes MTCC 442 assessed as diameter of growth inhibition zone at 250 ug/ml after 18-24 hr by agar cup diffusion method; settings: read-out: DIZ
Escherichia coli [30] = test: Antimicrobial activity against Escherichia coli MTCC 443 by agar cup diffusion method
Klebsiella pneumoniae [31] = test: Antimicrobial activity against Klebsiella pneumoniae MTCC 109 assessed as diameter of growth inhibition zone at 100 ug/ml after 18-24 hr by agar cup diffusion method; settings: read-out: DIZ
Escherichia coli [32] = test: Antimicrobial activity against Escherichia coli MTCC 443 assessed as diameter of growth inhibition zone at 50 ug/ml after 18-24 hr by agar cup diffusion method; settings: read-out: DIZ
Penicillium [33] = test: Antimicrobial activity against Penicillium wild strain assessed as diameter of growth inhibition zone at 50 ug/ml after 48-96 hr by agar cup diffusion method; settings: read-out: DIZ
Penicillium [34] = test: Antimicrobial activity against Penicillium wild strain assessed as diameter of growth inhibition zone at 25 ug/ml after 48-96 hr by agar cup diffusion method; settings: read-out: DIZ
Penicillium [35] = test: Antimicrobial activity against Penicillium wild strain by agar cup diffusion method
Aspergillus clavatus [36] = test: Antimicrobial activity against Aspergillus clavatus MTCC 1323 assessed as diameter of growth inhibition zone at 50 ug/ml after 48-96 hr by agar cup diffusion method; settings: read-out: DIZ
Streptococcus pyogenes [37] = test: Antimicrobial activity against Streptococcus pyogenes MTCC 442 assessed as diameter of growth inhibition zone at 25 ug/ml after 18-24 hr by agar cup diffusion method; settings: read-out: DIZ
Staphylococcus aureus [38] = test: Antimicrobial activity against Staphylococcus aureus MTCC 96 assessed as diameter of growth inhibition zone at 250 ug/ml after 18-24 hr by agar cup diffusion method; settings: read-out: DIZ
Klebsiella pneumoniae [39] = test: Antimicrobial activity against Klebsiella pneumoniae MTCC 109 by agar cup diffusion method
Klebsiella pneumoniae [40] = test: Antimicrobial activity against Klebsiella pneumoniae MTCC 109 assessed as diameter of growth inhibition zone at 25 ug/ml after 18-24 hr by agar cup diffusion method; settings: read-out: DIZ
Penicillium [41] = test: Antimicrobial activity against Penicillium wild strain assessed as diameter of growth inhibition zone at 100 ug/ml after 48-96 hr by agar cup diffusion method; settings: read-out: DIZ
Candida albicans [42] = test: Antimicrobial activity against Candida albicans MTCC 227 assessed as diameter of growth inhibition zone at 50 ug/ml after 48-96 hr by agar cup diffusion method; settings: read-out: DIZ
Pseudomonas aeruginosa [43] = test: Antimicrobial activity against Pseudomonas aeruginosa MTCC 1688 assessed as diameter of growth inhibition zone at 50 ug/ml after 18-24 hr by agar cup diffusion method; settings: read-out: DIZ
Pseudomonas aeruginosa [44] = test: Antimicrobial activity against Pseudomonas aeruginosa MTCC 1688 assessed as diameter of growth inhibition zone at 100 ug/ml after 18-24 hr by agar cup diffusion method; settings: read-out: DIZ
Klebsiella pneumoniae [45] = test: Antimicrobial activity against Klebsiella pneumoniae MTCC 109 assessed as diameter of growth inhibition zone at 250 ug/ml after 18-24 hr by agar cup diffusion method; settings: read-out: DIZ

## O=C(/C=C/c1ccccc1Cl)C1C(=O)NC(=S)NC1=O
Staphylococcus aureus [1]
  zone of inhibition at 25 µg/mL: 10 mm
Staphylococcus aureus [2]
  zone of inhibition at 100 µg/mL: 17 mm
Penicillium [3]
  zone of inhibition at 250 µg/mL: 22 mm
Aspergillus clavatus [4]
  zone of inhibition at 100 µg/mL: 21 mm
Candida albicans [5]
  zone of inhibition at 250 µg/mL: 23 mm
Escherichia coli [6]
  zone of inhibition at 250 µg/mL: 16 mm
Trichophyton rubrum [7]
  zone of inhibition at 25 µg/mL: 19 mm
Klebsiella pneumoniae [8]
  zone of inhibition at 50 µg/mL: 13 mm
Pseudomonas aeruginosa [9]
  MBC: 500 µg/mL (≈ 1620 µM)
  MIC: 250 µg/mL (≈ 810 µM)
Staphylococcus aureus [10]
  MBC: 500 µg/mL (≈ 1620 µM)
  MIC: 250 µg/mL (≈ 810 µM)
Escherichia coli [11]
  zone of inhibition at 25 µg/mL: 13 mm
Pseudomonas aeruginosa [12]
  zone of inhibition at 250 µg/mL: 18 mm
Staphylococcus aureus [13]
  zone of inhibition at 50 µg/mL: 14 mm
Streptococcus pyogenes [14]
  zone of inhibition at 50 µg/mL: 14 mm
Aspergillus clavatus [15]
  MFC: > 1000 µg/mL
  MIC: > 1000 µg/mL
Candida albicans [16]
  zone of inhibition at 100 µg/mL: 22 mm
Candida albicans [17]
  zone of inhibition at 25 µg/mL: 21 mm
Pseudomonas aeruginosa [18]
  zone of inhibition at 25 µg/mL: 10 mm
Candida albicans [19]
  MFC: > 1000 µg/mL
  MIC: 250 µg/mL (≈ 810 µM)
Trichophyton rubrum [20]
  MFC: 500 µg/mL (≈ 1620 µM)
  MIC: 500 µg/mL (≈ 1620 µM)
Streptococcus pyogenes [21]
  zone of inhibition at 100 µg/mL: 15 mm
Escherichia coli [22]
  zone of inhibition at 100 µg/mL: 15 mm
Streptococcus pyogenes [23]
  MBC: 250 µg/mL (≈ 810 µM)
  MIC: 250 µg/mL (≈ 810 µM)
Trichophyton rubrum [24]
  zone of inhibition at 100 µg/mL: 19 mm
Trichophyton rubrum [25]
  zone of inhibition at 50 µg/mL: 20 mm
Aspergillus clavatus [26]
  zone of inhibition at 250 µg/mL: 22 mm
Aspergillus clavatus [27]
  zone of inhibition at 25 µg/mL: 18 mm
Trichophyton rubrum [28]
  zone of inhibition at 250 µg/mL: 21 mm
Streptococcus pyogenes [29]
  zone of inhibition at 250 µg/mL: 16 mm
Escherichia coli [30]
  MBC: 500 µg/mL (≈ 1620 µM)
  MIC: 250 µg/mL (≈ 810 µM)
Klebsiella pneumoniae [31]
  zone of inhibition at 100 µg/mL: 15 mm
Escherichia coli [32]
  zone of inhibition at 50 µg/mL: 14 mm
Penicillium [33]
  zone of inhibition at 50 µg/mL: 18 mm
Penicillium [34]
  zone of inhibition at 25 µg/mL: 18 mm
Penicillium [35]
  MFC: > 1000 µg/mL
  MIC: > 1000 µg/mL
Aspergillus clavatus [36]
  zone of inhibition at 50 µg/mL: 19 mm
Streptococcus pyogenes [37]
  zone of inhibition at 25 µg/mL: 13 mm
Staphylococcus aureus [38]
  zone of inhibition at 250 µg/mL: 18 mm
Klebsiella pneumoniae [39]
  MBC: 250 µg/mL (≈ 810 µM)
  MIC: 200 µg/mL (≈ 648 µM)
Klebsiella pneumoniae [40]
  zone of inhibition at 25 µg/mL: 12 mm
Penicillium [41]
  zone of inhibition at 100 µg/mL: 21 mm
Candida albicans [42]
  zone of inhibition at 50 µg/mL: 22 mm
Pseudomonas aeruginosa [43]
  zone of inhibition at 50 µg/mL: 14 mm
Pseudomonas aeruginosa [44]
  zone of inhibition at 100 µg/mL: 17 mm
Klebsiella pneumoniae [45]
  zone of inhibition at 250 µg/mL: 18 mm
